Tests used:
Test in all cases: relative viability (nuclei count vs DMSO), 5 days (fraction); higher = more cells survive
[1] = compound: COc1cc2nccc(Oc3ccc(NC(=O)C4(C(=O)Nc5ccc(F)cc5)CC4)cc3)c2cc1OC [Cabozantinib] + Nc1nc2[nH]cc(CCc3ccc(C(=O)N[C@@H](CCC(=O)O)C(=O)O)cc3)c2c(=O)[nH]1 [Pemetrexed] (partner 0.2 µM)
In short: (§1)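 Relative viability was taken as the ratio of nuclei in treated wells to nuclei in vehicle wells. Lung cancer cell lines in 1536-well plates received compounds by pin tool one day after seeding, either one drug alone or a fixed anchor-drug dose plus five library-drug doses (not always all listed) in √10 steps. Nuclei were counted on 4× images after 5 days of treatment, and values are medians of duplicate plates.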

Zosuquidar + OSI-027 = compound: O[C@@H](COc1cccc2ncccc12)CN1CCN([C@@H]2c3ccccc3[C@@H]3[C@H](c4ccccc42)C3(F)F)CC1 [Zosuquidar] + COc1cccc2cc(-c3nc([C@H]4CC[C@H](C(=O)O)CC4)n4ncnc(N)c34)[nH]c12 [OSI-027] (partner 0.5 µM)
In short: as §1

Kobe2602 + Bortezomib = compound: C1=CC(=CC=C1NC(=S)NNC2=C(C=C(C=C2[N+](=O)[O-])C(F)(F)F)[N+](=O)[O-])F [Kobe2602] + CC(C)C[C@H](NC(=O)[C@H](Cc1ccccc1)NC(=O)c1cnccn1)B(O)O [Bortezomib] (partner 0.002 µM)
In short: as §1

Kobe2602 + Linsitinib = compound: C1=CC(=CC=C1NC(=S)NNC2=C(C=C(C=C2[N+](=O)[O-])C(F)(F)F)[N+](=O)[O-])F [Kobe2602] + C[C@]1(O)C[C@@H](c2nc(-c3ccc4ccc(-c5ccccc5)nc4c3)c3c(N)nccn32)C1 [Linsitinib] (partner 1 µM)
In short: as §1

Cell Line	relative viability ([1]; first compound 0.02 µM)	relative viability ([1]; first compound 0.06325 µM)	relative viability ([1]; first compound 0.2 µM)	relative viability ([1]; first compound 0.6325 µM)	relative viability ([1]; first compound 2 µM)	relative viability (Zosuquidar + OSI-027; first compound 0.01 µM)	relative viability (Zosuquidar + OSI-027; first compound 0.03162 µM)	relative viability (Zosuquidar + OSI-027; first compound 0.1 µM)	relative viability (Zosuquidar + OSI-027; first compound 0.3162 µM)	relative viability (Zosuquidar + OSI-027; first compound 1 µM)	relative viability (Kobe2602 + Bortezomib; first compound 0.2 µM)	relative viability (Kobe2602 + Bortezomib; first compound 0.6325 µM)	relative viability (Kobe2602 + Bortezomib; first compound 2 µM)	relative viability (Kobe2602 + Bortezomib; first compound 6.325 µM)	relative viability (Kobe2602 + Bortezomib; first compound 20 µM)	relative viability (Kobe2602 + Linsitinib; first compound 0.2 µM)	relative viability (Kobe2602 + Linsitinib; first compound 0.6325 µM)	relative viability (Kobe2602 + Linsitinib; first compound 2 µM)	relative viability (Kobe2602 + Linsitinib; first compound 6.325 µM)	relative viability (Kobe2602 + Linsitinib; first compound 20 µM)
HCC-366	0.189	0.214	0.173	0.156	0.15	0.911	1.09	0.845	1.19	0.956	1.13	1.01	1.01	1.07	1.12	0.711	0.743	0.629	0.664	0.647
HCC-827	0.266	0.251		0.214	0.274	0.828	0.723	0.673	0.828	0.788	1.09	1.15	0.965	1.01	1.08	0.902	0.936	0.925	0.955	0.922
HOP-62	0.271	0.364	0.34	0.336	0.3	0.768	0.833	0.817	0.865	0.906	0.875	1.15	0.508	0.75	0.818	0.837	1.11	0.974	1.01	1.12
LC-2-ad	0.279	0.285	0.271	0.278	0.253	0.865	0.814	0.829	1.09	0.864	0.946	1	0.941	1.02	0.993	0.849	0.833	0.774	0.867	0.865
LCLC-97TM1	0.155	0.179	0.181	0.17	0.17	0.469	0.507	0.366	0.502	0.641	0.691	0.757	0.501	0.611	0.526	0.221	0.179	0.159	0.196	0.202
LCLC-103H	0.45	0.451	0.459	0.527	0.465	0.474	0.469	0.402	0.478	0.528	1.15	1.11	1.04	1.13	1.01	1.05	1.1	1.1	1.09	0.984
LOU-NH91	0.424	0.366	0.487	0.371	0.413	0.623	0.664		0.781	0.713	0.518	0.454	0.469	0.478	0.527	0.997	0.983	1	0.922	0.965
LU99A	0.18	0.199	0.216	0.173	0.229	0.279	0.276	0.253	0.322	0.288	1.13	1.39	1.12	1.17	1.22	0.538	0.53	0.471	0.585	0.631
LXF-289	0.957	0.953	0.868	0.883	0.897	0.744	0.862	0.741	0.856	0.915	0.968	1.05	0.955	0.97	0.988	0.944	0.985	0.941	0.952	0.919
NCI-H23		0.819	0.471	0.655	0.476	0.644	0.636	0.525	0.705	0.641	1.01	1.11	0.973	0.998	1.09	0.528	0.706	0.477	0.652	0.525
NCI-H322M	0.614	0.744	0.578	0.628	0.613	0.529	0.67	0.485	0.66	0.575	1.23	1.23	1.28	1.2	1.21	0.88	1.01	0.883	1	0.921
NCI-H441	0.243	0.237	0.288	0.229	0.235	0.667	0.666	0.519	0.828	0.585	0.549	0.582	0.527	0.575	0.687	0.612	0.746	0.48	0.557	0.623
NCI-H460	0.0695	0.0609	0.0626	0.0622	0.0696	0.674	0.725	0.522	0.788	0.694	0.99	1.09	1.09	1.21	1.05	0.826	0.768	0.709	0.894	0.725
NCI-H520	0.625	0.747	0.667	0.63	0.552	0.266	0.294		0.237	0.236	0.612	0.713	0.511	0.593	0.537	0.997	1.04	1.02	0.984	0.968
NCI-H596	0.485	0.525	0.487	0.52	0.54	0.714		0.724	1.01	0.689	1.08	1	1.08	0.987	0.965	1.15	1.19	1.09	1.06	0.986
NCI-H647	0.165	0.192	0.162	0.149	0.133	0.64	0.63	0.552	0.886	0.723	0.911	1.22	0.889	0.882	0.938	1.12	1.45	1.25	0.864	1.19

Cell Line	relative viability ([1]; first compound 0.02 µM)	relative viability ([1]; first compound 0.06325 µM)	relative viability ([1]; first compound 0.2 µM)	relative viability ([1]; first compound 0.6325 µM)	relative viability ([1]; first compound 2 µM)	relative viability (Zosuquidar + OSI-027; first compound 0.01 µM)	relative viability (Zosuquidar + OSI-027; first compound 0.03162 µM)	relative viability (Zosuquidar + OSI-027; first compound 0.1 µM)	relative viability (Zosuquidar + OSI-027; first compound 0.3162 µM)	relative viability (Zosuquidar + OSI-027; first compound 1 µM)	relative viability (Kobe2602 + Bortezomib; first compound 0.2 µM)	relative viability (Kobe2602 + Bortezomib; first compound 0.6325 µM)	relative viability (Kobe2602 + Bortezomib; first compound 2 µM)	relative viability (Kobe2602 + Bortezomib; first compound 6.325 µM)	relative viability (Kobe2602 + Bortezomib; first compound 20 µM)	relative viability (Kobe2602 + Linsitinib; first compound 0.2 µM)	relative viability (Kobe2602 + Linsitinib; first compound 0.6325 µM)	relative viability (Kobe2602 + Linsitinib; first compound 2 µM)	relative viability (Kobe2602 + Linsitinib; first compound 6.325 µM)	relative viability (Kobe2602 + Linsitinib; first compound 20 µM)
NCI-H650	0.792	1.07	0.964	0.941	0.916	0.514	0.477	0.433	0.553	0.576	0.882	1.07	0.676	0.912	0.956	0.758	1.03	0.912	0.897	0.954
NCI-H661	0.959	0.941	0.981	0.939	1.07	0.654	0.67	0.596	0.714	0.695	0.936	0.83	0.78	0.796	0.755	0.53	0.559	0.629	0.539	0.581
NCI-H838	0.276	0.263	0.234	0.288	0.244	0.411	0.323	0.303	0.38	0.41	0.748	0.924	0.99	0.749	0.725	0.91	1.12	0.88	0.992	1.07
NCI-H1355	1.05	1.12	1.04	1.07	1.06	0.395	0.409	0.299	0.449	0.386	1.21	1.21	1.01	1.07	1.13	0.784	0.782	0.749	0.769	0.787
NCI-H1437	0.307	0.35	0.316	0.307	0.256	0.865	0.889	0.765	1.12	0.871	0.595	0.48	0.562	0.392	0.451	0.974	0.995	1.03	0.998	0.872
NCI-H1563	0.645	0.869	0.984	0.684	0.802	0.751	0.663	0.753	0.762	0.827	0.954	1.13	0.71	0.933	0.794	1.1	1.39	1.08	1.14	1.34
NCI-H1651	0.498	0.732	0.588	0.497	0.544	0.78	0.694	0.633	0.657	0.725	0.924	0.961	0.956	0.94	1.01	0.83	1.14	1.07	0.976	0.906
NCI-H1666	0.9	0.902	0.873	0.899	0.875	0.844	0.919	0.8	0.957	0.957	0.919	0.728		0.737	0.867	0.683	0.76		0.713	0.76
NCI-H1734	0.396	0.435	0.413	0.445	0.397	0.587	0.612	0.541	0.697	0.662	1.06	0.963	0.872	1.01	0.952	0.895	0.899	0.849	0.964	0.897
NCI-H1755	0.449	0.415	0.436	0.425	0.422	0.736	0.67	0.516	0.821	0.722	1.04	0.971	0.895	0.96	1	0.949	0.898	0.986	0.977	0.982
NCI-H1792		1.27	0.868	0.986	0.608	0.786	0.601		0.837	0.753	0.965	0.901	1.09	0.985	0.986	0.563	0.53	0.613	0.521	0.558
NCI-H1915	0.532	0.51	0.507	0.505	0.459	0.642	0.624	0.529	0.637	0.599	1.01	0.998	0.958	0.99	0.931	1.08	1.12	1.08	1.08	1.1
NCI-H1975	0.318	0.273	0.288	0.263	0.289	0.789	0.684	0.679	0.885	0.832	0.363	0.392	0.297	0.365	0.358	0.969	0.917	0.978	0.859	0.818
NCI-H1993	0.486	0.507	0.484	0.561	0.662	0.632	0.677	0.488	0.497	0.525	0.978	1.09	0.897	0.985	1.02	0.725	0.826	0.753	0.698	0.783
NCI-H2009	1.08	1.07	1.02	1	1.08	0.64	0.684	0.529	0.782	0.645	0.961	1.11	0.97	1.04	0.949	1.13	1.2	1.1	1.19	1.15
NCI-H2023	0.199	0.272	0.175	0.23	0.146	0.354	0.401	0.325	0.665	0.427	0.954	0.995	0.873	0.945	0.927	0.575	0.728	0.528	0.586	0.682

Reference: the supplement of paper PMC10307832
